{
  "source": "patent US20100160326A1",
  "about": "“PEST CONTROL AGENT CONTAINING NOVEL PYRIDYL-METHANAMINE DERIVATIVE OR SALT THEREOF” (ISHIHARA SANGYO KAISHA, LTD., priority 2006, published 2010)",
  "type_in_all_cases": "in vivo",
  "key": {"[1]": {"system": "Green Peach Aphid (Myzus persicae)", "assay": "Test on controlling effects against green peach aphid (leaf dip)", "details": "foliar, 120 h", "source_text": "Test on Controlling Effects Against Green Peach Aphid (Myzus persicae)\nMortality (%)=(1−(number of survived insects/number of treated insects))×100"}, "[2]": {"system": "Common Cutworm (Spodoptera litura)", "assay": "Test on controlling effects against common cutworm (cabbage leaf disk dip)", "details": "foliar", "source_text": "Test on Controlling Effects Against Common Cutworm (Spodoptera litura)\nMortality (%)=(Number of dead larvae/number of released larvae)×100"}, "[3]": {"system": "Two-Spotted Spider Mite (Tetranychus urticae)", "assay": "Test on adults of two-spotted spider mite (kidney bean leaf dip)", "details": "foliar, adults dipped together with kidney bean leaf, second or third day after the treatment, 25° C.", "source_text": "Test on Adults of Two-Spotted Spider Mite (Tetranychus urticae)\nMortality of adults (%)=(Number of dead two-spotted spider mites/Number of treated two-spotted spider mites)×100"}, "[4]": {"details": "800 ppm, Japanese radish leaf dipped about 10 seconds, first instar nymphs, counted 5 days after the treatment, 25° C., read-out: mortality"}, "[5]": {"details": "800 ppm, cabbage leaf disk dipped about 10 seconds, second-third instar larvae, fifth day after the release, 25° C., read-out: mortality"}},
  "note": "Read-outs that look alike come from different tables or passages of the source.",
  "data": [
    {"smiles": "N#Cc1c(C(F)(F)F)cc(N(Cc2ccccn2)Cc2ccccn2)nc1Cl", "note": "[Compound No. 24, N,N-bis(2-pyridylmethyl)-6-chloro-5-cyano-4-(trifluoromethyl)-2-pyridylamine]", "values": [
      {"measurement": "mortality at 800 ppm", "setting": "[1]; in Raphanus sativus", "result": "≥ 90", "unit": "%"},
      {"measurement": "mortality at 800 ppm", "setting": "[2]", "result": "≥ 90", "unit": "%"}
    ]},
    {"smiles": "FC(F)(F)c1cc(Cl)nc(NCc2ccccn2)c1", "note": "[Compound No. 128, N-(2-PYRIDYLMETHYL)-6-CHLORO-4-(TRIFLUOROMETHYL)-2-PYRIDYLAMINE]", "values": [
      {"measurement": "mortality at 800 ppm", "setting": "[1]; [4]", "result": "≥ 90", "unit": "%"}
    ]},
    {"smiles": "FC(F)(F)c1cc(N(Cc2ccccn2)Cc2ccccn2)nc(C(F)(F)F)c1Cl", "note": "[Compound No. 103, N,N-BIS(2-PYRIDYLMETHYL)-5-CHLORO-4,6-BIS(TRIFLUOROMETHYL)-2-PYRIDYLAMINE]", "values": [
      {"measurement": "mortality at 800 ppm", "setting": "[1]; [4]", "result": "≥ 90", "unit": "%"},
      {"measurement": "mortality at 800 ppm", "setting": "[2]; [5]", "result": "≥ 90", "unit": "%"},
      {"measurement": "mortality at 800 ppm", "setting": "[3]", "result": "≥ 90", "unit": "%"}
    ]},
    {"smiles": "C=CCN(Cc1ccccn1)c1cc(C(F)(F)F)c(Cl)c(Cl)n1", "note": "[Compound No. 55, N-ALLYL-N-(2-PYRIDYLMETHYL)-5,6-DICHLORO-4-(TRIFLUOROMETHYL)-2-PYRIDYLAMINE]", "values": [
      {"measurement": "mortality at 800 ppm", "setting": "[1]; [4]", "result": "≥ 90", "unit": "%"},
      {"measurement": "mortality at 800 ppm", "setting": "[2]; [5]", "result": "≥ 90", "unit": "%"},
      {"measurement": "mortality at 800 ppm", "setting": "[3]", "result": "≥ 90", "unit": "%"}
    ]},
    {"smiles": "FC(F)(F)c1cc(NCc2ccccn2)nc(Cl)c1Cl", "note": "[Compound No. 118, N-(2-PYRIDYLMETHYL)-5,6-DICHLORO-4-(TRIFLUOROMETHYL)-2-PYRIDYLAMINE]", "values": [
      {"measurement": "mortality at 800 ppm", "setting": "[1]; [4]", "result": "≥ 90", "unit": "%"},
      {"measurement": "mortality at 800 ppm", "setting": "[2]; [5]", "result": "≥ 90", "unit": "%"},
      {"measurement": "mortality at 800 ppm", "setting": "[3]", "result": "≥ 90", "unit": "%"}
    ]},
    {"smiles": "O=[N+]([O-])c1cnc(N(Cc2ccccn2)Cc2ccccn2)cc1C(F)(F)F", "note": "[Compound No. 9, N,N-BIS(2-PYRIDYLMETHYL)-5-NITRO-4-(TRIFLUOROMETHYL)-2-PYRIDYLAMINE]", "values": [
      {"measurement": "mortality at 800 ppm", "setting": "[1]; in Raphanus sativus", "result": "≥ 90", "unit": "%"},
      {"measurement": "mortality at 800 ppm", "setting": "[2]", "result": "≥ 90", "unit": "%"}
    ]},
    {"smiles": "CC(c1cccnc1)N(Cc1ccccn1)c1cc(C(F)(F)F)c(Cl)c(Cl)n1", "note": "(stereo not drawn) [Compound No. 97, N-(1-(3-PYRIDYL)ETHYL)-N-(2-PYRIDYLMETHYL)-5,6-DICHLORO-4-TRIFLUOROMETHYL-2-PYRIDYLAMINE]", "values": [
      {"measurement": "mortality at 800 ppm", "setting": "[1]; [4]", "result": "≥ 90", "unit": "%"},
      {"measurement": "mortality at 800 ppm", "setting": "[2]; [5]", "result": "≥ 90", "unit": "%"},
      {"measurement": "mortality at 800 ppm", "setting": "[3]", "result": "≥ 90", "unit": "%"}
    ]},
    {"smiles": "FC(F)(F)c1cc(Br)nc(N(Cc2ccccn2)Cc2ccccn2)c1", "note": "[Compound No. 90, N,N-BIS(2-PYRIDYLMETHYL)-6-BROMO-4-(TRIFLUOROMETHYL)-2-PYRIDYLAMINE]", "values": [
      {"measurement": "mortality at 800 ppm", "setting": "[1]; [4]", "result": "≥ 90", "unit": "%"},
      {"measurement": "mortality at 800 ppm", "setting": "[3]", "result": "≥ 90", "unit": "%"}
    ]},
    {"smiles": "C#Cc1nc(N(Cc2ccccn2)Cc2ccccn2)cc(C(F)(F)F)c1Cl", "note": "[Compound No. 94, N,N-BIS(2-PYRIDYLMETHYL)-5-CHLORO-6-ETHYNYL-4-(TRIFLUOROMETHYL)-2-PYRIDYLAMINE]", "values": [
      {"measurement": "mortality at 800 ppm", "setting": "[1]; [4]", "result": "≥ 90", "unit": "%"},
      {"measurement": "mortality at 800 ppm", "setting": "[3]", "result": "≥ 90", "unit": "%"}
    ]},
    {"smiles": "FC(F)(F)c1cc(N(Cc2ccccn2)Cc2ccccn2)nc(Br)c1Cl", "note": "[Compound No. 92, N,N-BIS(2-PYRIDYLMETHYL)-6-BROMO-5-CHLORO-4-(TRIFLUOROMETHYL)-2-PYRIDYLAMINE]", "values": [
      {"measurement": "mortality at 800 ppm", "setting": "[1]; [4]", "result": "≥ 90", "unit": "%"},
      {"measurement": "mortality at 800 ppm", "setting": "[2]; [5]", "result": "≥ 90", "unit": "%"},
      {"measurement": "mortality at 800 ppm", "setting": "[3]", "result": "≥ 90", "unit": "%"}
    ]}
  ]
}
